For 27 molecules, IC50 results are on record in patent US7696218B2, “Substituted 1,3-dialkyl-2,4-dioxo-6-(arylamino)-1,2,3,4-tetrahydropyrimidine-5-hydroxamic acid inhibitors of MAPK/ERK kinase” (Takeda San Diego, Inc., priority 2006, dated 2010).

Some results are limits rather than exact numbers.

In the assay the target is T1, MEK2 (Homo sapiens, UniProt P36507, S222E/S226D).
T1 construct: 6-histidine tag (N); made in house; host or cells: Spodoptera frugiperda Sf9 (baculovirus) for MEK2; E. coli for ERK1
T1 sequence (P36507 with tags, fused parts or gaps S222E/S226D): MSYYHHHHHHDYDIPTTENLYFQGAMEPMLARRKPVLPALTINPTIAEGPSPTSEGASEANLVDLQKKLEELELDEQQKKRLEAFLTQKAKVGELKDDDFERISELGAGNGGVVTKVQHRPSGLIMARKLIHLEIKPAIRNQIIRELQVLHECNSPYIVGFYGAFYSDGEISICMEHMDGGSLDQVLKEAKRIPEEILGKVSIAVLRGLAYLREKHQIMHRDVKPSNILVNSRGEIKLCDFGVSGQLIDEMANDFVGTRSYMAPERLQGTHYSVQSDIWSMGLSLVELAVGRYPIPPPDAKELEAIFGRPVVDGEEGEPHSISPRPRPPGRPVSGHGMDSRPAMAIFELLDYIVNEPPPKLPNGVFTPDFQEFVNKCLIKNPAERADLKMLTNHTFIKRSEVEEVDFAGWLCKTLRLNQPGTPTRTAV
Briefly: MEK2 inhibition assay, fluorescence polarization with IMAP beads (ERK1 / FI-Erktide substrate). Type of assay: biochemical. To be noted: 4 nM MEK2, 25 nM ERK1, 400 μM ATP, 500 nM FI-Erktide, 1% DMSO, 22 min at room temperature; values given as ranges; read-out: IC50 of Exemplified Compounds Against MEK2. The source says: For MEK2, DNA encoding residues 1-400 (S222E/S226D) of the full-length sequence of the human enzyme may be amplified by PCR and cloned into pFastbac (Invitrogen), which incorporates a 6-histidine tag at the N-terminus. The two mutations, S222E and S226D, may be obtained by quick change PCR. SEQ ID NO: 3 corresponds to residues 1-400 with mutations S222E/S226D, and with the N-terminal 6-histidine tag and SEQ ID NO: 4 is the DNA sequence that was used to encode SEQ ID NO: 3.
Recombinant baculovirus incorporating the MEK1 and MEK2 constructs may be generated by transposition using the Bac-to-Bac system (Invitrogen). High-titer viral stocks may be generated by infection of Spodoptera frugiperda Sf9 cells; the expression of recombinant protein may be carried out by infection of Spodoptera frugiperda Sf9 (Invitrogen) in 5L Wave Bioreactors (Wave Biotech).
Recombinant protein may be isolated from cellular extracts by passage over ProBond resin (Invitrogen). Partially purified extracts of all MEK1 may then be further purified by high pressure liquid chromatography over a SEC2000 gel filtration resin. The purity of MEK1 and MEK2 proteins may be determined on denaturing SDS-PAGE gel. Purified MEK1 and MEK2 may then be concentrated to a final concentration of 3.4 mg/ml and 5.4 mg/ml, respectively. The proteins may be either stored at −78° C. in a buffer containing 50 mM TRIS-HCl pH 7.6, 250 mM NaCl, 0.1 mM EDTA and 0.125 mM TCEP or at −20° C. in the presence of glycerol (final concentration of glycerol at 50%).
The inhibitory properties of compounds relative to MEK1 or MEK2 may be determined using a black 384-well-plate format under the following reaction conditions: 50 mM HEPES pH 7.3, 10 mM NaCl, 10 mM MgCl2, 0.01% Brij35, 1 nM MEK1 or 4 nM MEK2, 25 nM ERK1, 400 μM ATP, 500 nM IPTTPITTYFFFK-5FAM-COOH (FI-Erktide), and 1% DMSO. Reaction product is determined quantitatively by fluorescent polarization using progressive IMAP beads from Molecular Devices.
The assay reaction may be initiated as follows: 2 μl of the mixture of 1.5 μM FI-Erktide and 75 nM ERK with 2 μl of inhibitor (2 fold serial dilutions for 11 data points for each inhibitor) containing 3% DMSO were added to each well of the plate, followed by the addition of 2 μl of the mixture of 3 nM MEK1 or 12 nM MEK2 and 1200 μM ATP to initiate the reaction (final enzyme concentration was 1 nM for MEK1 or 4 nM for MEK2). The reaction mixture may then be incubated at room temperature for 22 min, and quenched and developed by addition of 20 μl of 1:200 dilution of progressive IMAP beads (Molecular Devices) in 80% buffer A, 20% bufferB and 0.003% Tween 20. Fluorescence polarization of the resulting reaction mixtures may be measured after a 1 hour incubation at room temperature.
IC50 values may be calculated by non-linear curve fitting of the compound concentrations and fluorescence polarization signal to the standard IC50 equation.

As for `Cn1c(Nc2ccc(I)cc2F)c(C(=O)NOC[C@H](O)CO)c(=O)n(C)c1=O` [Example 2, (R)-N-(2,3-dihydroxypropoxy)-6-(2-fluoro-4-iodophenylamino)-1,3-dimethyl-2,4-dioxo-1,2,3,4-tetrahydropyrimidine-5-carboxamide], the IC50 is no more than 500 nM.

For `Cn1c(Nc2ccc(I)cc2F)c(C(=O)NOCCO)c(=O)n(C)c1=O` [Example 3, 6-(2-fluoro-4-iodophenylamino)-N-(2-hydroxyethoxy)-1,3-dimethyl-2,4-dioxo-1,2,3,4-tetrahydropyrimidine-5-carboxamide], the IC50 was no more than 500 nM. Regarding `Cn1c(Nc2ccc(I)cc2F)c(C(=O)NOCC2CC2)c(=O)n(C)c1=O` [Example 4, N-(cyclopropylmethoxy)-6-(2-fluoro-4-iodophenylamino)-1,3-dimethyl-2,4-dioxo-1,2,3,4-tetrahydropyrimidine-5-carboxamide], the IC50 was 501 to 2500 nM. To `CONC(=O)c1c(Nc2ccc(I)cc2F)n(C)c(=O)n(C)c1=O` [Example 5, 6-(2-Fluoro-4-iodophenylamino)-N-methoxy-1,3-dimethyl-2,4-dioxo-1,2,3,4-tetrahydropyrimidine-5-carboxamide] belongs 501 to 2500 nM; to `Cn1c(Nc2ccc(I)cc2F)c(C(=O)NO)c(=O)n(C)c1=O` [Example 6, 6-(2-Fluoro-4-iodophenylamino)-N-hydroxy-1,3-dimethyl-2,4-dioxo-1,2,3,4-tetrahydropyrimidine-5-carboxamide], no more than 500 nM.

For the molecule `Cn1c(Nc2ccc(I)cc2F)c(C(=O)NN)c(=O)n(C)c1=O` [Example 9, 6-(2-Fluoro-4-iodophenylamino)-1,3-dimethyl-2,4-dioxo-1,2,3,4-tetrahydropyrimidine-5-carbohydrazide], the 50% inhibitory concentration (IC50) is no more than 500 nM. Take `CC(=O)c1c(Nc2ccc(I)cc2F)n(C)c(=O)n(C)c1=O` [Example 10, 5-Acetyl-6-(2-fluoro-4-iodophenylamino)-1,3-dimethylpyrimidine-2,4(1H,3H)-dione]: the concentration for half-maximal inhibition (IC50) is 501 to 2500 nM. For `Cn1c(Nc2ccc(I)cc2F)c(C(=O)c2ccco2)c(=O)n(C)c1=O` [Example 11, 6-(2-Fluoro-4-iodophenylamino)-5-(furan-2-carbonyl)-1,3-dimethylpyrimidine-2,4(1H,3H)-dione], the concentration for half-maximal inhibition (IC50) was 2500 to 25000 nM. The value for `COCC(=O)c1c(Nc2ccc(I)cc2F)n(C)c(=O)n(C)c1=O` [Example 12, 6-(2-Fluoro-4-iodophenylamino)-5-(2-methoxyacetyl)-1,3-dimethylpyrimidine-2,4(1H,3H)-dione] was 2500 to 25000 nM. The value for `COCCOCC(=O)c1c(Nc2ccc(I)cc2F)n(C)c(=O)n(C)c1=O` [Example 13, 6-(2-Fluoro-4-iodophenylamino)-5-(2-(2-methoxyethoxy)acetyl)-1,3-dimethylpyrimidine-2,4(1H,3H)-dione] was 2500 to 25000 nM; that for `CC(=O)OCC(=O)c1c(Nc2ccc(I)cc2F)n(C)c(=O)n(C)c1=O` [Example 14, 2-(6-(2-Fluoro-4-iodophenylamino)-1,3-dimethyl-2,4-dioxo-1,2,3,4-tetrahydropyrimidin-5-yl)-2-oxoethyl acetate] was greater than 25000 nM. The value for `Cn1c(Nc2ccc(I)cc2F)c(C(=O)CO)c(=O)n(C)c1=O` [Example 15, 6-(2-Fluoro-4-iodophenylamino)-5-(2-hydroxyacetyl)-1,3-dimethylpyrimidine-2,4(1H,3H)-dione] was 501 to 2500 nM. Turning to `Cn1c(Nc2ccc(I)cc2F)c(C(N)=O)c(=O)n(C)c1=O` [Example 16, 6-(2-Fluoro-4-iodophenylamino)-1,3-dimethyl-2,4-dioxo-1,2,3,4-tetrahydropyrimidine-5-carboxamide], the half-maximal inhibitory concentration (IC50) is no more than 500 nM.

In the case of `Cc1cc(I)ccc1Nc1c(C(N)=O)c(=O)n(C)c(=O)n1C` [Example 17, 6-(4-Iodo-2-methylphenylamino)-1,3-dimethyl-2,4-dioxo-1,2,3,4-tetrahydropyrimidine-5-carboxamide], the concentration for half-maximal inhibition (IC50) is 501 to 2500 nM. To `Cn1c(Nc2ccc(Br)cc2Cl)c(C(N)=O)c(=O)n(C)c1=O` [Example 18, 6-(4-Bromo-2-chlorophenylamino)-1,3-dimethyl-2,4-dioxo-1,2,3,4-tetrahydropyrimidine-5-carboxamide] belongs 2500 to 25000 nM; to `Cn1c(Nc2ccc(Br)cc2F)c(C(N)=O)c(=O)n(C)c1=O` [Example 19, 6-(4-Bromo-2-fluorophenylamino)-1,3-dimethyl-2,4-dioxo-1,2,3,4-tetrahydropyrimidine-5-carboxamide], 2500 to 25000 nM; to `CCOC(=O)c1c(Nc2ccc(I)cc2F)n(C)c(=O)n(C)c1=O` [Example 20, Ethyl 6-(2-fluoro-4-iodophenylamino)-1,3-dimethyl-2,4-dioxo-1,2,3,4-tetrahydropyrimidine-5-carboxylate], greater than 25000 nM. Turning to `CCOC(=O)c1c(Nc2ccccc2F)n(C)c(=O)n(C)c1=O` [Example 21, Ethyl 6-(2-fluorophenylamino)-1,3-dimethyl-2,4-dioxo-1,2,3,4-tetrahydropyrimidine-5-carboxylate], the IC50 was greater than 25000 nM.

With `CCOC(=O)c1c(Nc2ccc(Br)cc2Cl)n(C)c(=O)n(C)c1=O` [Example 22, Ethyl 6-(4-bromo-2-chlorophenylamino)-1,3-dimethyl-2,4-dioxo-1,2,3,4-tetrahydropyrimidine-5-carboxylate], the IC50 is greater than 25000 nM. The value for `Cn1c(Nc2ccc(I)cc2Cl)c(C(=O)NOCCO)c(=O)n(C)c1=O` [Example 25, 6-(2-chloro-4-iodophenylamino)-N-(2-hydroxyethoxy)-1,3-dimethyl-2,4-dioxo-1,2,3,4-tetrahydropyrimidine-5-carboxamide] was no more than 500 nM; that for `Cn1c(Nc2ccc(I)cc2Cl)c(C(=O)NOC[C@H](O)CO)c(=O)n(C)c1=O` [Example 27, (R)-6-(2-chloro-4-iodophenylamino)-N-(2,3-dihydroxypropoxy)-1,3-dimethyl-2,4-dioxo-1,2,3,4-tetrahydropyrimidine-5-carboxamide] was no more than 500 nM; that for `Cn1c(Nc2ccc(I)cc2F)c(C(=O)NOC(CO)CO)c(=O)n(C)c1=O` [Example 28, N-(1,3-dihydroxypropan-2-yloxy)-6-(2-fluoro-4-iodophenylamino)-1,3-dimethyl-2,4-dioxo-1,2,3,4-tetrahydropyrimidine-5-carboxamide] was no more than 500 nM. To `Cn1c(Nc2ccc(I)cc2F)c(C(=O)NOCCCO)c(=O)n(C)c1=O` [Example 29, 6-(2-Fluoro-4-iodophenylamino)-N-(3-hydroxypropoxy)-1,3-dimethyl-2,4-dioxo-1,2,3,4-tetrahydropyrimidine-5-carboxamide] belongs 501 to 2500 nM. To `Cc1cc(C(=O)c2c(Nc3ccc(I)cc3F)n(C)c(=O)n(C)c2=O)no1` [Example 30, 6-(2-Fluoro-4-iodophenylamino)-1,3-dimethyl-5-(5-methylisoxazole-3-carbonyl)pyrimidine-2,4(1H,3H)-dione] belongs greater than 25000 nM; to `Cn1c(Nc2ccc(I)cc2F)c(C(=O)C(=O)O)c(=O)n(C)c1=O` [Example 31, 2-(6-(2-Fluoro-4-iodophenylamino)-1,3-dimethyl-2,4-dioxo-1,2,3,4-tetrahydropyrimidin-5-yl)-2-oxoacetic acid], greater than 25000 nM. In the case of `Cn1c(Nc2ccc(I)cc2F)c(C(=O)N2CC(O)CO2)c(=O)n(C)c1=O` (stereo not drawn) [Example 32, 6-(2-Fluoro-4-iodophenylamino)-5-(4-hydroxyisoxazolidine-2-carbonyl)-1,3-dimethylpyrimidine-2,4(1H,3H)-dione], the half-maximal inhibitory concentration (IC50) fell in the range of 2500 to 25000 nM.

Turning to `Cn1c(Nc2ccc(I)cc2F)c(C(=O)NCCN2CCCC2)c(=O)n(C)c1=O` [Example 33, 6-(2-Fluoro-4-iodophenylamino)-1,3-dimethyl-2,4-dioxo-N-(2-(pyrrolidin-1-yl)ethyl)-1,2,3,4-tetrahydropyrimidine-5-carboxamide], the IC50 was in the range of 2500 to 25000 nM.

In general, IC50 refers to the point on the concentration scale where inhibition reaches its midpoint.
